{
  "source": "paper PMC9862819",
  "about": "“Structural Characterization of Murine Phosphodiesterase 5 Isoforms and Involvement of Cysteine Residues in Supramolecular Assembly” (International Journal of Molecular Sciences, 2023)",
  "key": {"MmPDE5A3 [1]": {"target": "T1, MmPDE5A3 (Mus musculus, UniProt Q8CG03)", "assay": "[3H]cGMP hydrolysis assay; also spectrophotometric thiol titration and native PAGE", "type": "biochemical", "design": "gene Pde5a; full-length MmPDE5A3 isoform (823 amino acids common to the three isoforms), 3XFLAG tag"}, "MmPDE5A3 [2]": {"target": "T1, MmPDE5A3", "design": "gene Pde5a"}, "MmPDE5A3 [3]": {"target": "T1, MmPDE5A3", "assay": "native PAGE conformational shift; [3H]cGMP hydrolysis; added protection of Cys with sildenafil", "type": "binding", "design": "gene Pde5a; full-length MmPDE5A3 isoform (823 amino acids common to the three isoforms), 3XFLAG tag"}},
  "data": [
    {"smiles": "O=C(O)c1cc(SSc2ccc([N+](=O)[O-])c(C(=O)O)c2)ccc1[N+](=O)[O-]", "note": "[DTNB, 5,5-dithio-bis-(2-nitrobenzoic acid)]", "values": [
      {"measurement": "IC50", "setting": "MmPDE5A3 [1]", "value": "~30", "unit": "µM"}
    ]},
    {"smiles": "CCCc1nn(C)c2c(=O)[nH]c(-c3cc(S(=O)(=O)N4CCN(C)CC4)ccc3OCC)nc12", "note": "[Sild, sildenafil]", "values": [
      {"measurement": "native PAGE conformational shift and protection of Cys from DTNB titration", "setting": "MmPDE5A3 [2]", "value": "the reactive Cys were close to the active site and were shielded by the inhibitor"}
    ]},
    {"smiles": "Nc1nc2c(ncn2[C@@H]2O[C@@H]3COP(=O)(O)O[C@H]3[C@H]2O)c(=O)[nH]1", "note": "[cGMP]", "values": [
      {"measurement": "native PAGE conformational shift; [3H]cGMP hydrolysis; added protection of Cys w", "setting": "MmPDE5A3 [3]", "value": "the conformation of D3 was also the main outcome of the binding of the substrate and inhibitor (cGMP and sildenafil"}
    ]}
  ]
}
